Results reported in patent publication US20140378408A1, “NUCLEOSIDE 5'-PHOSPHOROTHIOATE ANALOGUES AND USES THEREOF” (BAR-ILAN UNIVERSITY, an Israeli University, priority 2012, published 2014).
Entries after “also recorded” stand apart in the source; their conditions may differ.

How the values were obtained:
[1] = Metabolic stability in mouse brain, liver and blood homogenates (HPLC); assay type: in vitro ADME, mice; conditions: 37° C., up to 180 min
Protocol: In order to use APCPP-γ-S as a neuroprotectant agent and test its activity in an animal model, we first evaluated the metabolic stability of APCPP-γ-S in several tissues such as liver, brain and blood. In this assay we took samples from mice brain, liver and blood. The tissue samples were homogenated by sonication and split to 0.5 ml aliquots. Each sample was mixed with 0.1 mg of APCPP-γ-S and incubated at 37° C. for 10, 30, 90 and 180 min. After incubation, the samples were collected and extracted with chloroform at 1:1 v/v ratio. The aqueous layer was removed and freeze-dried. Samples were loaded onto an activated Starta X-AW weak anion exchange cartridge, washed with H2O (1 ml) and eluted with MeOH:H2O (1:1, 1 ml) followed by NH4OH:MeOH:H2O (2:25:73, 1 ml), and then freeze-dried. The resulting residue was analyzed by HPLC. […] Each analysis cycle was set to 30 minutes. The chromatographic flow was monitored at 260 nm and integrated using EZChrom Elite Software.

cartilage pieces = assay: NTMP hydrolysis in cartilage pieces; parameters: species or system human; conditions: 0.1 mM, NTMP 0.1 mM, OD 405 nm
Source text: Increased chondrocyte PPi production, and PPi-generating NPP1 activity are linked with CPPD crystal deposition disease, common in aging and osteoarthritic cartilage. […] Its hydrolysis by endogenous enzyme (NPP1) from matrix vesicles (MVs), human chondrocytes or cartilage pieces results in elevated OD at 405 nm.
In order to test the ability of the NPP1 inhibitor to inhibit NTMP hydrolysis in cartilage pieces, 12 pieces of cartilage of a uniform diameter were weighed and placed in wells of a 96-well plate overnight in DMEM w/o phenol red with penicillin-streptomycin-glutamine (PSG). The pieces of cartilage were incubated with 0.1 mM NTMP in TES, pH 7.37, in the presence or absence of 0.1 mM of the NPP1 inhibitor for 0, 15′, 30′, 1, 2, 4, 6, 8 hours at 37° C. At each time point 200 μl were removed from each well and the reaction was read at 405 nm.

Aβ28-Cu^+ complex = biological target: T1, Aβ28-Cu^+ complex (Homo sapiens, UniProt P05067); assay: Titration of Aβ28-Cu^+ complex by chelators monitored by 1H-NMR; conditions: 0.8 mM Aβ28-Cu^+, pD 7
T1 construct: we first studied Aβ28, as a more soluble fragment of Aβ40; purchased Sigma-Aldrich
T1 sequence (P05067 672-699 limits assumed, one chain of several): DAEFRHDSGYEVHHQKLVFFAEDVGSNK

Compound: Nc1ncnc2c1ncn2[C@@H]1O[C@H](COP(=O)(O)CP(=O)(O)OP(O)(O)=S)[C@@H](O)[C@H]1O [APCPP-γ-S, adenosine 5′-[Pγ-thio]-α,β-methylenetriphosphate]
- metabolic stability in brain, liver and blood [1]: no significant degradation after 3 h; also recorded: could be detected even after 180 min

Compound: Nc1ncnc2c1ncn2[C@@H]1O[C@H](COP(O)(=S)OP(=O)(O)C(Cl)(Cl)P(=O)(O)O)[C@@H](O)[C@H]1O (single isomer, unassigned; isomer a) [APPCCl2P-α-S (isomer A), adenosine 5′-[Pα-thio]-β,γ-(dichloromethylene)triphosphate]
- inhibition of NTMP hydrolysis in cartilage pieces (cartilage pieces): inhibit the hydrolysis of NTMP

Compound: Nc1ncnc2c1ncn2[C@@H]1O[C@H](COP(=O)(O)OP(O)(O)=S)[C@@H](O)[C@H]1O [ADP-β-S, adenosine 5′-[β-thio]diphosphate, reference compound]
- equivalents at which the spectrum resembled that of pure Aβ28 (Aβ28-Cu^+ complex): 5 eq
